One may read the IC50 as the concentration that inhibits the measured activity by half. One may read the EC50 as the concentration that produces a half-maximal response.

One series deals with Hs27 human fibroblasts. Nature of the series: Viability assay (Alamar Blue) on Hs27 fibroblasts. Type of series: cell-based. Particulars: read-out: Mammalian cells IC50 ± SD, Hs27 Fibroblasts. The protocol: Rhesus monkey kidney epithelial cell LLC-MK2 (American Type Culture Collection-ATCC, Manassas, Va. # CCL-7), Hs-27 human fibroblasts (American Type Culture Collection-ATCC, Manassas, Va.), RAW 264.7 murine macrophages (American Type Culture Collection-ATCC, Manassas, Va.) U2-09 human osteoblasts (American Type Culture Collection-ATCC, Manassas, Va. # HTB-99) (American Type Culture Collection-ATCC, Manassas, Va.) cells were cultured in Dulbecco's Modified Eagle's Medium (DMEM), supplemented with 10% inactivated FBS, along with 1% of 10,000 units/ml penicillin and 10 mg/ml streptomycin in 0.9% sodium chloride. Intraperitoneal BALB/c mice macrophages were obtained and cultured in DMEM high-glucose, +L-glu, supplemented with 10% FBS (inactivated). The procedure was performed minimizing the distress and pain for the animals following the NIH guidance and animal protocol approved by UTEP's Institutional Animal Care and Use Committee (IACUC).
Viability assay on mammalian cells and T. cruzi epimastigotes. The cytotoxicity and anti-trypanosomal activity of the NC compounds was tested in human Hs27 fibroblasts (ATCC CRL-1634), LLC-MK2 cells (ATCC CCL-7), RAW 264.7 murine macrophages (ATCC TIB71) (American Type Culture Collection-ATCC, Manassa, Va.), mice intraperitoneal macrophages and in epimastigote forms of T. cruzi Y strain using Alamar Blue assay (Invitrogen—Life Technology, Grand Island, N.Y.). The experiments were performed as described using a range of concentration of 500 μM to 1 nM.
The statistical significance (p-value) of the compound's cytotoxicity was calculated using the General Linear Mixed Model Analysis. This analysis was used to test the linear effect of the logarithm of dose on the logit transformation of the percent survival. The IC50 was obtained as the exponent of the negative ratio of the y-intercept and the slope of the fitted regression line (SAS Software, Version 9.2). […] All experiments had statistical significance determined at p≦0.05(*), p≦0.01(**), and p≦0.001(***).
On the technique in general: Resazurin is reduced to fluorescent resorufin, in cell work by metabolically active cells.

Series [1] concerns Leishmania major promastigotes. Kind of series: Luciferase survival assay on L. major promastigotes. Type of series: cell-based. How it is done:
Evaluation of the NC library activity against Leishmania major. The NC library (136 compounds) was screened using firefly luciferase-expressing L. major promastigotes referred to as Lmj-FV1-LUC-TK (L. major strain Friedlin (MHOM/JL/80/Friedlin) clone V1) engineered to express luciferase following integration of the construct pIR1SAT-LUC(a)-TK(b) (strain B5113) in the rRNA locus (S. M. Hickerson and S. M. Beverley, unpublished data). Enones (stock solutions in DMSO) were diluted (1 nM to 500 μM, in a final 1% DMSO) and added (1 μl per well) to 96-well microplates using an Eppendorf epMotion 5070 automated pipetting system. Promastigotes (10^6/well) were added, and parasite survival was assessed by luciferase activity with the substrate 5′-fluoroluciferin (ONE-Glo Luciferase Assay System, Promega) after 96-h incubation at 28° C., using a luminometer (Luminoskan, Thermo). The bioluminescent intensity was a direct measure of the survival of parasites. This was determined by comparing bioluminescent intensity of L. major parasites live/dead with MTT assay and cell counting. The primary compound screens were performed as single wells.

The test system of series [2] is L. major metacyclic promastigotes. Nature of the series: Murine model for cutaneous leishmaniasis (footpad infection). Format: in vivo, BALB/c mice. Particulars: for footpad swelling: 10^5 L. major metacyclic promastigotes, intraperitoneal daily treatment. The protocol: (§1) The in vivo experiments were comprised of four groups of five mice each: (1) infected, but not treated [control for the infection—100 μL of DMSO per day, drug diluent]; (2) treated with NC884, NC901 or NC2459, but not infected with the parasites [control for drug toxicity]; (3) infected with the parasites and treated with amphotericin B (8 mg/kg/day) [reference drug; positive control]; and (4) infected with the parasites and treated with NC884, NC901 or NC2459 [experimental group]. Luciferase expressing metacyclic promastigotes L. major (Freidlin V1) were obtained as described previously. Suspensions of 1×10^5 or 1×10^6 parasites per 50 μl of sterile DMEM (endotoxin-free) were injected with a 30G needle into the left hind footpad of BALB/c mice. Two weeks post-infection the compounds were administered once a day by intraperitoneal route, daily for 14 to 17 days. Twice a week, weights were recorded to monitor toxicity and the thickness of the infected footpad and the non-infected footpad was measured with digital calipers to monitor the progression of the disease. The parasitic load also was evaluated through in vivo imaging using luminescence (Kodak Image Station). The mice were injected intra-peritoneally with 150 mg/kg D-luciferin (Sigma, USA) 10 min before imaging, anesthetized with 1-2% isofluorane in oxygen during imaging and the net intensity emitted from the footpad was quantified using the KODAK Image Station software. Parasite burden was expressed as net intensity emitted from L. major infected footpad lesions normalized against the background fluorescence of uninfected mice. The presence/absence of parasites was confirmed by PCR using L. major methionine aminopeptidase (MetAP1) 1 specific primers: 5′-[…]-3′ (SEQ ID NO:1) and 5′-[…]-3′ (SEQ ID NO:2) on cDNA reverse transcribed from total RNA extracted from footpad lysate obtained by macerating footpad tissue fragments in Trizol (Invitrogen Life Technologies, United States) with the gentleMACS™ Dissociator (Miltenyi Biotec GmbH, Germany) following the manufacturer's protocol.

In series [3] the test system is BALB/c mice intraperitoneal macrophages. Nature of the series: Annexin V/PI assay on intraperitoneal macrophages. Format: cell-based, mouse. The protocol: Apoptosis was evaluated using Alexa Fluor® 488 Annexin V/PI Apoptosis Kit (Initrogen™-Life technology, Grand Island, N.Y.). L. major promastigotes and BALB/c mice intraperitoneal macrophages were treated with each compound for 24 h. After exposure, the parasites (5×10^7) and macrophages (5×10^6) were harvested, washed and re-suspended with PBS. The Annexin V/PI staining of cells followed the manufacturer's instructions. Then the samples were analyzed with Beckman Coulter Fc500 flow cytometer (Beckman Coulter, USA). The results were expressed as the number of annexin positive cells per thousand cells counted.

The target of series [4] is trypanothione reductase (TR) from T. cruzi (Trypanosoma cruzi, UniProt P28593). Kind of series: Trypanothione reductase inhibition. Format: biochemical. Particulars: preliminary, unpublished data.
In series [5] the target is lipoamide dehydrogenase (LipDH) also from T. cruzi (Trypanosoma cruzi, UniProt P90597). Kind of series: Lipoamide dehydrogenase inhibition. Type of series: biochemical. Particulars: preliminary, unpublished data.
Series [6] is described as follows: Weight and toxicity monitoring in treated infected mice. Format: in vivo, BALB/c mice. Particulars: for deaths as a result of compound toxicity / weight loss: 10^5 infection experiment; for weight loss: daily IP treatment. The protocol:
as §1

The mark [7] stands for this setting: 96 h, read-out: estimated EC50, L. major promastigotes.
Where [8] appears, read: 96 h incubation, read-out: L. major Promastigotes EC50.
Setting [9] is: same concentrations as in L. major promastigotes, 24 h.

Where two headings read alike, the source gives them in different places.

lipoamide dehydrogenase (LipDH) also from T. cruzi, sequence (P90597 whole entry): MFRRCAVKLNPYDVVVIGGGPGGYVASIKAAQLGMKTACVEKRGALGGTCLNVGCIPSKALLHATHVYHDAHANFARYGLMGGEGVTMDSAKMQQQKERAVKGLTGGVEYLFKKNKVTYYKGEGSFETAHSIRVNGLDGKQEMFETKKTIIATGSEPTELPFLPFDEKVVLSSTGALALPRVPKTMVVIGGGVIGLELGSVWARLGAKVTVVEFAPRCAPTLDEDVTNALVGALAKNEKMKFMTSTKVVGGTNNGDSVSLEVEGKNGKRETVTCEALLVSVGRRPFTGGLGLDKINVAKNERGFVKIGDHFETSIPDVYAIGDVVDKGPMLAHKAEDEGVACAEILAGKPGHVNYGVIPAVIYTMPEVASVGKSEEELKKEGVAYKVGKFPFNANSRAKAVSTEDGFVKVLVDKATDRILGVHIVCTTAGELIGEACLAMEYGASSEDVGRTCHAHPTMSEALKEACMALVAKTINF
trypanothione reductase (TR) from T. cruzi, sequence (P28593 whole entry): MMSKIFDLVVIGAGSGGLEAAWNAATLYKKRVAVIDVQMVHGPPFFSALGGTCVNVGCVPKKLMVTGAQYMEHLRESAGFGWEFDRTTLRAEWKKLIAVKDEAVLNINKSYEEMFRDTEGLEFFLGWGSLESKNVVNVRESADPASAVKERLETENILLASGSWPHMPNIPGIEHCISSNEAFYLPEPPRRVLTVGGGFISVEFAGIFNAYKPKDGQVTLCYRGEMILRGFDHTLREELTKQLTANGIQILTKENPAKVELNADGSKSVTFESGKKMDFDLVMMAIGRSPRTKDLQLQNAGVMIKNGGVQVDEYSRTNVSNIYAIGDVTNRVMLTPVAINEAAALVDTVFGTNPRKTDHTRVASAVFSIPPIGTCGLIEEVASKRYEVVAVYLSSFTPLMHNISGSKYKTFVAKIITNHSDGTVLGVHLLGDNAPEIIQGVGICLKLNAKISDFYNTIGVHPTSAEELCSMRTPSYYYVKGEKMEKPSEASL

Take `CN(C)CC1CCC(CN(C)C)C1=O` (stereo not drawn) [NC884]: the IC50 with Hs27 human fibroblasts is 16.3 ± 0.17 µM. Besides, the EC50 in series [1] (setting [7]) and in series [1] (setting [8]) was 1.12 µM each time. Further, in series [2], the footpad swelling result was “reduced the footpad swelling similar to that of the positive control”. In addition, the “annexin V positive cells in macrophages” value in series [3] (setting [9]) is given as “No effect”. Besides, the “inhibition of trypanothione reductase” value in series [4] was “time-dependent irreversible inhibition”. In addition, in series [5], the “inhibition of lipoamide dehydrogenase” value is given as “time-dependent irreversible inhibition”. Also, the “deaths as a result of compound toxicity” value in series [6] is listed as “no mice died”. For the same compound, in series [6], the weight loss result is “no significant weight loss”.

On to `CN(C)CC1CCCC(CN(C)C)C1=O` (stereo not drawn) [NC901], for which the half-maximal inhibitory concentration (IC50) with Hs27 human fibroblasts is 16 ± 0.12 µM. The 50% effective concentration (EC50) in series [1] (setting [7]) was 0.453 µM; in series [1] (setting [8]), 0.45 µM. For the same compound, in series [2], the footpad swelling result is “reduced the footpad swelling similar to that of the positive control”. In addition, the “annexin V positive cells in macrophages” value in series [3] was “No effect”. Further, the “inhibition of trypanothione reductase” value in series [4] is reported as “time-dependent irreversible inhibition”. Further, in series [5], the “inhibition of lipoamide dehydrogenase” value was “time-dependent irreversible inhibition”. Also, the “deaths as a result of compound toxicity” value in series [6] is “no mice died”. Moreover, the weight loss result in series [6] is listed as “no significant weight loss”.

For the compound `O=C1/C(=C/c2ccccc2)CN(C(=O)C(=O)N2C/C(=C\c3ccccc3)C(=O)/C(=C/c3ccccc3)C2)C/C1=C\c1ccccc1` [NC2459], the IC50 in the series with Hs27 human fibroblasts was 10.01 ± 0.09 µM. For the same compound, the EC50 in series [1] (setting [8]) came out at 0.02 µM. The EC50 in series [1] (after a 96 hour treatment, read-out: estimated EC50, L. major promastigotes) is 0.02 µM. The footpad swelling entry in series [2] is “much lower amount of swelling than all groups”. Further, in series [2] (10^5 parasites), the “time until measurable lesions start developing” value is listed as 6-7 weeks post-infection. Further, the “mice never developing a lesion” value in series [2] (10^5 parasites, monitored up to twelve weeks post-infection) is “one out of the three mice never developed a lesion”. Further, in series [2] (10^6 parasites, 8 mg/kg/day extended treatment, p≦0.05), the “lesion size at 33 days post-infection” value was “significantly smaller lesion than all other groups”. Also, the “PCR of L. major MetAP1 gene in footpad” value in series [2] (mouse displaying no lesion) is “no traces of L. major genomic DNA”. Moreover, in series [3] (setting [9]), the “annexin V positive cells in macrophages” value is on record as “No effect”. Moreover, in series [6], the “deaths as a result of compound toxicity” value was “no mice died” and the weight loss result is “no significant weight loss”. In addition, the “additional weight loss or toxic side effects compared to the control group” value in series [6] (10^6 infection, 8 mg/kg/day extended treatment) is reported as “did not result in any additional weight loss or toxic side effects”.
